{
  "source": "patent US6680344B1",
  "about": "“Method of treating hair loss using diphenylmethane derivatives” (The University of Texas Southwestern Medical Center, priority 1999, dated 2004)",
  "test_system": "heart/body weight ratio of male Sprague Dawley rats",
  "experiment": "Cardiotoxicity assay (heart-to-body weight ratio)",
  "type": "in vivo, rat",
  "conditions": "250 μg/kg subcutaneously once daily for 28 days, cardiac-sparing where C is less than 1.3",
  "text": "The cardiotoxicity assay measures the potential of a test compound to adversely affect the cardiovascular system. As thyroid hormone (T3) damages the cardiovascular system, the heart enlarges. See, e.g., Gomberg-Maitland et al., “Thyroid hormone and Cardiovascular Disease”, American Heart Journal, Vol. 135(2), pp. 187-196 (1998); Klein and Ojamaa, “Thyroid Hormone and the Cardiovascular System”, Current Opinion in Endocrinology and Diabetes, Vol. 4, pp.341-346 (1997); and Klemperer et al., “Thyroid Hormone Therapy and Cardiovascular Disease”, Progress in Cardiovascular Diseases, Vol. 37 (4), pp. 329-336 (1996). This increases the weight of the heart relative to whole body weight. The cardiotoxicity assay herein below is used to test compounds for potentially adverse cardiac effects by measuring their effect on the heart-to-body weight ratio.\nTwo groups each of six male Sprague Dawley rats (Harlan Sprague Dawley, Inc., Indianapolis, Ind.) (each weighing from approximately 220 grams to 235 grams) are utilized. The first group is a vehicle control group and the second group is a test compound group. The length of the assay is 30 days, with treatment of vehicle or test compound in vehicle daily for 28 of those days as described below.\nPrior to initiation of the assay, each rat is allowed to acclimate to standard environmental conditions for 5 days. […]",
  "data": [
    {"smiles": "N[C@@H](Cc1cc(I)c(Oc2cc(I)c(O)c(I)c2)c(I)c1)C(=O)O", "note": "[T4, thyroxine]", "values": [
      {"measurement": "cardiac-sparing classification (index C = RT/RV, heart/body ratio of test compound group over vehicle control group)", "value": "not cardiac-sparing"}
    ]}
  ]
}
